This note sets out measurements from PMC11259170, “Small-molecule probe for IBD risk variant GPR65 I231L alters cytokine signaling networks through positive allosteric modulation” (Science Advances, 2024).

Where two headings read alike, the source gives them in different places. Where only a bound is given, the exact number is not on record here.

For one data set, the target named is T1, human GPR4 (hGPR4) (Homo sapiens, UniProt P46093).
T1 construct: expressed in transfected cells; host or cells: HeLa (ATCC CCL-2), lentiviral transduction, pLX317
Kind of data set: cAMP detection in HeLa expression cell line, hGPR4. Type of data set: cell-based. The following applies: highest concentration tested. How it is done: HeLa stable expression cell lines were produced by lentiviral transduction. Briefly, lentiviral plasmids for each GPCR with a C-terminal V5 Tag ([…]) were made in a pLX317 backbone using competent Escherichia coli (New England Biolabs, C3050H). Lenti-X 293 T (Takara, 632810) cells were transfected with the lentiviral plasmids to produce virus. Low-passage HeLa cells (American Type Culture Collection, CCL-2) were then transduced with lentivirus. After 48 hours, HeLa cells were cultured under selection with puromycin (3 μg/ml) and allowed to recover and expand before storing stocks in liquid nitrogen.
cAMP was measured in cells using the Lance Ultra cAMP Kit. HeLa cells were cultured under puromycin (3 μg/ml) selection. One day before the experiment, cells were seeded in T75 flasks and allowed to adhere overnight. On the day of the experiment, cells were washed twice with Dulbecco’s PBS and lifted using prewarmed 1× versene solution (Gibco, 15040066). Cells were counted in HBSS (Gibco, 14025092) and then resuspended in stimulation buffer prepared according to the manufacturer’s instructions and adjusted to pH 7.2 using 1 M sodium hydroxide. Cells were added to the plate at a density of 1500 cells per well in white opaque 384-well assay ready microplates containing 100 nl of 10 mM compound in DMSO. Cells were stimulated for 30 min at RT, then lysed and incubated with detection reagents for 1 hour in the dark at RT. Plates were read on BMG Labtech PHERAstar FSX (excitation, 337 nm; emission, 620 and 665 nm). Data analysis was performed using GraphPad Prism.

Data set [1] can be described thus: Solubility in phosphate buffer. As to conditions: read-out: Solubility. Type of data set: physicochemical.
The target of a further data set is T2, mGPR65 (Mus musculus, UniProt Q61038).
T2 construct: expressed in transfected cells; host or cells: HeLa (ATCC CCL-2), lentiviral transduction, pLX317
Kind of data set: cAMP detection in HeLa expression cell line, mGPR65. Type of data set: cell-based. The following applies: for Emax: HeLa, relative to 100uM forskolin (100%) and DMSO (0%), read-out: mGPR Max Activity %. A digest of the protocol:
(§1)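 HeLa cells stably expressing C-terminally V5-tagged receptor or GFP (lentiviral, puromycin 3 μg/ml) stimulated at 1500 cells per well for 30 min at RT with compound (10 mM DMSO stock) in stimulation buffer at pH 7.2. cAMP detected by Lance Ultra TR-FRET after lysis and 1 h detection, excitation 337 nm, emission 620/665 nm.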

Data set [2] has as its target T3, hGPR65 (Homo sapiens, UniProt Q8IYL9).
T3 construct: expressed in transfected cells; host or cells: HeLa (ATCC CCL-2), lentiviral transduction, pLX317
The experiment in a line: cAMP detection (Lance Ultra), GPR65 KO HeLa reconstituted with hGPR65; 21K screen dose confirmation. Type of data set: cell-based.

Another data set has as its system human PBMCs. The experiment in a line: cAMP detection in human PBMCs. Type of data set: cell-based. As to conditions: 0 to 50 μM, 30 min, pH 7.2. How it is done:
Human blood samples were collected from healthy donors at the Blood Donor Center at Massachusetts General Hospital in compliance with all relevant ethical regulations and according to protocol 2018P001504 approved by the Mass General Brigham Institutional Review Board. Donors provided informed written consent. Human PBMCs were isolated by density gradient separation using Ficoll-Paque PLUS (VWR- GE Life Sciences, catalog no. 17144002), as previously described ([54]). Isolated PBMCs were incubated overnight in DMEM (10% FBS, 0.2% sodium bicarbonate, 1X Glutamax) at 37°C, 5% CO2. Human monocytes were isolated from an unpurified Buffy Coat using RosetteSep human monocyte enrichment cocktail (StemCell Technologies, 15068) and frozen same day in FBS with 10% DMSO.
cAMP was measured in cells using the Lance Ultra cAMP Kit. Compound dose curves were prepared in an assay buffer, which was made according to the manufacturer’s guidelines using DMEM instead of HBSS. Assay buffer was adjusted to desired pH using 1 M HCl or NaOH. PBMCs were collected, centrifuged, and resuspended in assay buffer. Dose curves and cells were added to a white opaque OptiPlate (PerkinElmer, 6007290) at a density of 20,000 cells per well. […] Eu-cAMP tracer and FRET emissions were read using a PerkinElmer EnVision Multimode plate reader (ENVISION21040010). […]

Data set [3] addresses T3, hGPR65. Kind of data set: cAMP detection (Lance Ultra), GPR65 KO HeLa reconstituted with hGPR65; 21K screen dose confirmation. The following applies: primary hit validation. Type of data set: cell-based. How it is done:
(§2) The Lance Ultra cAMP Kit (PerkinElmer, TRF0264) was used for cAMP detection, and included the following reagents: ULight anti-cAMP antibody, Eu-cAMP tracer, 7.5% BSA Stabilizer solution, and cAMP detection buffer. Stimulation buffer was prepared as described by the kit manufacturer as follows: Hanks buffered saline solution (HBSS, Life Technologies, 14025-126) containing 0.5 mM IBMX (3-isobutyl-1-methylxanthine, Sigma-Aldrich, I7018) and buffered with 1 M Hepes (15630-080). Stimulation buffer was then adjusted to pH 7.1 using 12 N HCl. HeLa cells were lifted using Versene and then suspended at 2.5 × 10^5 cells/ml in stimulation buffer. Cells were then plated at 20 μl per well (5000 cells per well) in white, opaque OptiPlate 384-well MicroPlates (PerkinElmer, 6007299) using a Thermo Fisher Scientific Combi liquid dispenser. Compounds, stored at 5 mM in DMSO for the primary screen, or in a range of concentrations from 39 μM to 20 mM for dose curves, were transferred by the CyBio CyBi-Well Vario pin transfer tool with 100-nl pins (V&P FP1NS50H, 50-nl slot, 0.457-mm diameter, hydrophobic coated), into each assay well, 100 nl per well for a final assay concentration of 25 μM for the primary screen, or 195 nM to 100 μM for dose curves. Assay plates were then incubated at RT for 30 min. Eu-cAMP tracer was diluted 1:33 into detection buffer and the final solution then distributed into assay wells, 5 μl per well. ULight anti-cAMP antibody was diluted 1:100 into detection buffer, then distributed into assay wells, also 5 μl per well. Assay plates were then incubated at RT in the dark for 1 hour. Eu-cAMP tracer and Förster resonance energy transfer (FRET) emissions were then read using a PerkinElmer EnVision Multimode plate reader (ENVISION21040010), exciting each well at 320 nm [UV2 (TRF) 320 filter] and reading emissions at 615 nm (Europium 615 filter) and 665 nm (APC665 filter). Data analysis was performed using Genedata Screener and GraphPad Prism.
(§3) HeLa KO cell lines were generated using the px330 plasmid CRISPR system as previously described ([18]). Briefly, HeLa cells were transfected with a Cas9 vector containing a gene-specific single-guide RNA to target the GPR65 coding exon. Forty-eight to 72 hours after transfection, single clones were obtained through limiting dilution and then sequenced to validate the KO. Reconstituted cell lines were produced by transducing KO cells with empty lentivirus or lentivirus containing hGPR65 or mGPR65. After 48 hours, cells were treated with puromycin (3 μg/ml; InvivoGen, ant-pr-1) and resistant cells were used in experiments.

The test system of data set [4] is GPR65 KO HeLa cells + pLX empty vector. The experiment in a line: cAMP detection, GPR65 KO HeLa + empty pLX vector (null control). Type of data set: cell-based, human. On the procedure: as §2, §3
For data set [5], the target named is T3, hGPR65. Kind of data set: cAMP detection in HeLa expression cell line, hGPR65. Type of data set: cell-based. The following applies: for Emax: HeLa, relative to 100uM forskolin (100%) and DMSO (0%), read-out: hGPR Max Activity %. A digest of the protocol:
as §1

The nature of the next data set: Lipophilicity (logD). Type of data set: physicochemical. As to conditions: pH 7.4; pH7.4; read-out: LogD (pH7.4).
A short description of data set [6]: Solubility remark in the Comments column of the SAR table. Type of data set: physicochemical. An excerpt: Supplement sciadv.adn2339_data_s1_to_s4.zip/sciadv.adn2339_data_s2.xlsx, sheet "SAR cAMP Assay"
For data set [7], the system named is GFP-expressing HeLa cells. Kind of data set: cAMP detection in HeLa expression cell line, GFP control. Type of data set: cell-based, human. As to conditions: Homo sapiens, HeLa, 2nd GFP column pair, NA = no activity. Put shortly:
as §1

[8] abbreviates: 2nd mGPR column pair, NA = no activity.
Where [9] appears, read: 1st hGPR column pair, NA = no activity.
The mark [10] stands for this setting: 2nd hGPR column pair, NA = no activity.

T3 sequence (Q8IYL9 whole entry): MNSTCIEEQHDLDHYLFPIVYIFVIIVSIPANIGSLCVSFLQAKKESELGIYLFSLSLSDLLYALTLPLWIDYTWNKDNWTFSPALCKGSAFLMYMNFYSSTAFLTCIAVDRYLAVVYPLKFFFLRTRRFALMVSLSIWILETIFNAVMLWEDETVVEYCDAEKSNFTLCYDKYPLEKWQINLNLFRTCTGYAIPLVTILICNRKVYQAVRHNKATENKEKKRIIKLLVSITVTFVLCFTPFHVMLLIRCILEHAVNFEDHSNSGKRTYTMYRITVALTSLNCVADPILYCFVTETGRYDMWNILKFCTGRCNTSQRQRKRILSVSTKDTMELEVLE
T2 sequence (Q61038 whole entry): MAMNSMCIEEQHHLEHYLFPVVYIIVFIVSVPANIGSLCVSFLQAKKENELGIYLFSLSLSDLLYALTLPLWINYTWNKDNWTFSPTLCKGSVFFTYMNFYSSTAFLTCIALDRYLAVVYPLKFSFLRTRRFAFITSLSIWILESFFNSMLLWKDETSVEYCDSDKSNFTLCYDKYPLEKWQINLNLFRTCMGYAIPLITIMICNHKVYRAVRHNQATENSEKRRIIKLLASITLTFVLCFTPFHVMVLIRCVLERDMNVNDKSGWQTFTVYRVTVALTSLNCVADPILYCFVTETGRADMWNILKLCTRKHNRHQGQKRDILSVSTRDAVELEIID
T1 sequence (P46093 whole entry): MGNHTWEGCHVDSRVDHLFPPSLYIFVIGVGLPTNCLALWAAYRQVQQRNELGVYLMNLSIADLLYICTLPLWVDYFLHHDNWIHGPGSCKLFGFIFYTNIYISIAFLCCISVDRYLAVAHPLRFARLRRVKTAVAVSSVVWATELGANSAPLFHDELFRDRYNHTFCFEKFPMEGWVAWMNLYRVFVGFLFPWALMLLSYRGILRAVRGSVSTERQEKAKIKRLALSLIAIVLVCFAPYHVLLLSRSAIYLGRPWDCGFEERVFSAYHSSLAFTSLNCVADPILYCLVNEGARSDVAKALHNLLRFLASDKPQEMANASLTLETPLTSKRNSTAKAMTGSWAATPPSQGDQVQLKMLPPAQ

As to `COCc1ccc(-c2cc(O)n3ncc(C(=O)Nc4ccc(C)cc4)c3n2)cc1` [BRD2813, COCc1ccc(cc1)-c1cc(O)n2ncc(C(=O)Nc3ccc(C)cc3)c2n1], the “cAMP relative to DMSO in the hGPR4 cells” value on human GPR4 (hGPR4) is listed as “decrease in cAMP”. Moreover, the solubility in data set [1] is less than 1.56 µM. The Emax at mGPR65 (setting [8]) is 39.6%; on mGPR65 (NA = no activity), 35.8%; at hGPR65 [5] (setting [9]), 78.8%; on hGPR65 [5] (setting [10]) it was 79.2%. For the same compound, the EC50 on mGPR65 (mGPR EC50 (uM), first pair of columns, pH 7.2, 30 min) was 0.942 µM; at mGPR65 (mGPR EC50 (uM), second pair of columns, pH 7.2, 30 min) it was 0.406 µM; at mGPR65 (mGPR EC50 (uM), NA = no activity) it was 0.693 µM; in data set [4] (Homo sapiens, 0.5 h, HeLa GPR65 KO + pLX, pH 7.1, 30 min, normalized to DMSO and 100 μM forskolin), more than 100000 nM; at hGPR65 [5] (hGPR EC50 (uM), NA = no activity) it was 0.866 µM; at hGPR65 [5] (hGPR EC50 (uM), pH 7.2, 30 min), 1.2 µM. Also, the EC50 on hGPR65 [5] (hGPR EC50, NA = no activity) amounted to 0.993 µM; on hGPR65 [5] (hGPR EC50, pH 7.2, 30 min), 0.724 µM. Besides, on hGPR65 [2] (0-50 μM, pH curves), the “pH of greatest compound effect” value was “between pH 7.1 and 7.3”. The “cAMP response, BRD2813 compared with BTB09089” value at hGPR65 [2] (0 to 50 μM, pH 7.2) is given as “greater cAMP response”. Moreover, at hGPR65 [2] (increasing concentrations, 0 to 50 μM), the “shift in the pH response curve of GPR65” value is “leftward shift”. Also, the “cAMP production in human PBMCs, compared” value with human PBMCs is listed as “outperformed BTB09089”. Also, the “cAMP activity in hGPR65-expressing cells” value on hGPR65 [3] is given as “dose-dependent activity”. In [4] (primary hit validation), the “cAMP production in control cells” value was “without inducing cAMP production”. Besides, the logD in “Lipophilicity (logD)” was more than 4.65.
With `Cc1ccc(NC(=O)c2cnn3c(O)cc(-c4ccc(-c5ccccc5C(C)C)cc4)nc23)cc1` [BRD4665], the EC50 on mGPR65 (1st mGPR column pair, NA = no activity, read-out: mGPR EC50) was found to be 0.787 µM; at mGPR65 (2nd mGPR column pair, NA = no activity, read-out: mGPR EC50), 0.627 µM; in data set [7], 26400 nM; on hGPR65 [5] (1st hGPR column pair, NA = no activity, read-out: hGPR EC50) it was 0.227 µM; on hGPR65 [5] (2nd hGPR column pair, NA = no activity, read-out: hGPR EC50) it was 0.152 µM. Besides, the Emax on mGPR65 (setting [8]) stood at 33.2%; at mGPR65 (NA = no activity), 34.9%; in [7] (relative to 100uM forskolin (100%) and DMSO (0%), read-out: GFP Max Activity %) it was 12%; on hGPR65 [5] (setting [9]) it was 76.3%; on hGPR65 [5] (setting [10]), 79.6%. The “Comments (solubility)” value in data set [6] is “Poor solubility”.

For orientation: solubility means the concentration that dissolves in the medium under given conditions. By EC50 is commonly meant the midpoint of the concentration-response curve. As usually defined, the logD is the decadic logarithm of the distribution of all forms, ionised or not, between an organic phase and buffer at a given pH.
